Legend:
[1] = Thermogravimetric analysis (TGA): transition of molecular precursor into material; type: physicochemical; conditions: for TGA transition ending (completed) temperature / TGA transition midpoint: transition of precursor into material; for TGA yield at 400° C.: at about 400° C.; for TGA yield for the transition: residue at end of transition
Experimental: Thermogravimetric analysis (TGA) was performed using a Q50 Thermogravimetric Analyzer (TA Instruments, New Castle, Del.). NMR data were recorded using a Varian 400 MHz spectrometer.

[2] = Solubility of molecular precursor in organic solvents; type: physicochemical; conditions: for Solubility: benzene: solvent benzene; for Solubility: benzene / Solubility: toluene: 'heat'; for Solubility: diethyl ether: solvent diethyl ether; for Solubility: pentane: solvent pentane; for Solubility: CHCl3: solvent CHCl3; for Solubility: THF: solvent THF; for Solubility: toluene: solvent toluene

Substance	TGA transition ending (completed) temperature [1]	TGA yield at 400° C. [1]	TGA yield for the transition [1]	TGA transition midpoint [1] [°C]	Solubility: benzene [2]	Solubility: diethyl ether [2]	Solubility: pentane [2]	Solubility: CHCl3 [2]	Solubility: THF [2]	Solubility: toluene [2]
Ag—(Se^tBu)3Ga^nBu [Example 25]	about 210 °C	47.7 % (w/w)	53.9 % (w/w)							
Ag—(Se^tBu)3Ga^sBu [Example 27]	about 195 °C	45.1 % (w/w)	50.4 % (w/w)							
Ag—(Se^tBu)3In^iPr [Example 28]	about 205 °C		56.2 % (w/w)							
Ag—(Se^tBu)3In^nBu [Example 24]	about 205 °C	52.5 % (w/w)	54.6 % (w/w)							
Ag—(Se^tBu)3In^sBu [Example 26]	about 195 °C		54.9 % (w/w)							
Cu—(S^tBu)2(S^tBu)In^tBu [Example 9]	295 °C		47.9 % (w/w)	235						
Cu—(S^tBu)3Ga^iPr [Example 12]	220 °C		46.0 % (w/w)							
Cu—(S^tBu)3In^iPr [Example 1]	227 °C		50.4 % (w/w)	220	s heat	ss	nil			
Cu—(S^tBu)3In^nBu [Example 2]	248 °C		50.4 % (w/w)	235	vs	vs		vs	vs	vs
Cu—(S^tBu)3In^tBu [Example 4]	about 240 °C		48.1 % (w/w)		ss heat	nil	nil		ss	s heat
Cu—(Se^tBu)3Ga^tBu [Example 5]	about 210 °C		48.3 % (w/w)		ss heat	nil	nil			s heat
Cu—(Se^tBu)3In^iPr [Example 8]	199 °C		52.1 % (w/w)	192	heat	ss	nil			
Cu—(Se^tBu)3In^nBu [Example 3]	196 °C		48.5 % (w/w)	174	vs	vs		vs	vs	vs
Cu—(Se^tBu)3In^sBu [Example 14]	204 °C		52.3 % (w/w)	191						
Cu—(Se^tBu)3In^tBu [Example 7]	about 192 °C		53.1 % (w/w)		ss heat	nil	nil		ss	heat

— patent US8715537B2, “Molecular precursor methods and materials for optoelectronics” (Precursor Energetics, Inc., priority 2009, dated 2014)
